Reference: ChEMBL document CHEMBL1201862, “PubChem BioAssay data set” (2004)
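1) Cells in 96-well plates. 2) Compound, 48 h, 5 concentrations. 3) Linear interpolation between surrounding doses. 4) Unreached endpoint = highest concentration. The concentration for 50% growth inhibition is given as GI50.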 The source made the active and inactive calls. No stated cut-off is given here; in the data, active = GI50 up to about 1.1 µM and inactive = higher.

What was measured:
Assay in all cases: NCI anticancer screen, dose series, 48 h
EKVX = system: EKVX
HT-29 = system: HT-29
LOX IMVI = system: LOX IMVI
MCF7 = system: MCF7
MOLT-4 = system: MOLT-4
NCI-H23 = system: NCI-H23
OVCAR-5 = system: OVCAR-5
PC-3 = system: PC-3
SF-295 = system: SF-295
SK-MEL-28 = system: SK-MEL-28
SK-MEL-2 = system: SK-MEL-2
SNB-19 = system: SNB-19
SNB-75 = system: SNB-75
T47D = system: T47D
UACC-257 = system: UACC-257
UO-31 = system: UO-31
HL-60 = system: HL-60
HOP-62 = system: HOP-62
SF-268 = system: SF-268
NCI-H522 = system: NCI-H522

Measured: GI50

COC(=O)C1=C(O)CCCC(C2CCCCC(=O)C2C(=O)OC)=C1 (stereo unspecified)
inactive: EKVX 67.3 µM | HT-29 > 100 µM | LOX IMVI 25.6 µM | MCF7 22.6 µM | MOLT-4 31.3 µM | NCI-H23 70.3 µM | OVCAR-5 > 100 µM | PC-3 63.4 µM | SF-295 48 µM | SK-MEL-28 > 100 µM | SK-MEL-2 > 100 µM | SNB-19 42.1 µM | SNB-75 28.7 µM | T47D 39.4 µM | UACC-257 52.1 µM | UO-31 > 100 µM

O=C1/C(=C/c2cccc([N+](=O)[O-])c2)N=C(c2ccccc2)N1c1nc2c(Cl)cc(Cl)cc2s1
inactive: EKVX 15.5 µM | HL-60 21.7 µM | HOP-62 19.7 µM | HT-29 19.1 µM | LOX IMVI 16.4 µM | MCF7 23.9 µM | MOLT-4 11.5 µM | OVCAR-5 26.7 µM | PC-3 24 µM | SF-268 42.6 µM | SF-295 33.6 µM | SK-MEL-28 40.7 µM | SK-MEL-2 21.4 µM | SNB-19 23.1 µM | T47D 24.9 µM | UACC-257 30.1 µM | UO-31 21.8 µM

COC(=O)CC1(O)C(C=C(C)C)C(C(=O)OC)C(=O)C(C(=O)OC)C1C(=O)OC (stereo unspecified)
inactive: EKVX > 100 µM | HL-60 > 100 µM | HOP-62 > 100 µM | HT-29 > 100 µM | LOX IMVI > 100 µM | MCF7 > 100 µM | MOLT-4 > 100 µM | NCI-H23 > 100 µM | NCI-H522 > 100 µM | OVCAR-5 > 100 µM | PC-3 > 100 µM | SF-268 > 100 µM | SF-295 > 100 µM | SK-MEL-28 > 100 µM | SK-MEL-2 > 100 µM | SNB-19 > 100 µM | UACC-257 > 100 µM | UO-31 > 100 µM

O=C(CSSCC(=O)OCCS(=O)(=O)Nc1ccc(Br)cc1)OCCS(=O)(=O)Nc1ccc(Br)cc1
inactive: EKVX 26.5 µM | HL-60 14.7 µM | HOP-62 > 10 µM | HT-29 4.1 µM | LOX IMVI 7.18 µM | MOLT-4 3.11 µM | NCI-H23 11.4 µM | NCI-H522 6.53 µM | OVCAR-5 13.9 µM | SF-268 13.9 µM | SF-295 12.2 µM | SK-MEL-28 21.7 µM | SK-MEL-2 12.5 µM | SNB-19 32.8 µM | SNB-75 28.2 µM | UACC-257 9.46 µM | UO-31 28.6 µM

CN(C)CC[N+]1=Nc2cccc3cccc(c23)N1
inactive: EKVX > 84.7 µM | HL-60 24.3 µM | HOP-62 71 µM | HT-29 35.3 µM | LOX IMVI 24.1 µM | MOLT-4 21.6 µM | NCI-H23 > 77.3 µM | NCI-H522 33.7 µM | OVCAR-5 > 94 µM | SF-268 > 89.9 µM | SF-295 > 100 µM | SK-MEL-28 > 100 µM | SK-MEL-2 > 100 µM | SNB-19 > 49.5 µM | SNB-75 > 76.6 µM | UACC-257 > 100 µM | UO-31 13.9 µM

Nc1ccc(C(=O)NN2C(=O)C(Cl)C2c2cccc(O)c2)cc1 (stereo unspecified)
inactive: EKVX 21.5 µM | HL-60 1.69 µM | HOP-62 15.4 µM | HT-29 17.4 µM | LOX IMVI 3.85 µM | MOLT-4 11.3 µM | NCI-H23 15.5 µM | NCI-H522 1.75 µM | OVCAR-5 22.2 µM | SF-268 3.34 µM | SF-295 18.3 µM | SK-MEL-28 16.9 µM | SK-MEL-2 15 µM | SNB-19 16.9 µM | SNB-75 22.3 µM | UACC-257 18.3 µM | UO-31 19.7 µM

NCCCN(CCCCN(CCCN)Cc1ccc2ccccc2c1)Cc1ccc2ccccc2c1
inactive: EKVX 1.77 µM | HL-60 3.76 µM | HT-29 1.7 µM | LOX IMVI 2.1 µM | MCF7 2.09 µM | MOLT-4 2.01 µM | NCI-H23 1.85 µM | OVCAR-5 1.84 µM | SF-268 1.29 µM | SF-295 2.12 µM | SK-MEL-28 1.92 µM | SNB-19 1.53 µM | SNB-75 1.5 µM | T47D 2.42 µM | UACC-257 2.02 µM | UO-31 2.32 µM

CCOC(=O)/C(C#N)=C\Sc1ccccc1
inactive: EKVX 27.2 µM | HL-60 7.23 µM | HOP-62 36.1 µM | HT-29 26 µM | LOX IMVI 7.46 µM | MOLT-4 5.05 µM | NCI-H23 28.3 µM | NCI-H522 3.21 µM | OVCAR-5 24.7 µM | SF-268 3.73 µM | SF-295 20 µM | SK-MEL-28 14.7 µM | SK-MEL-2 25 µM | SNB-19 33.5 µM | SNB-75 18.8 µM | UACC-257 24.7 µM | UO-31 9.2 µM

COc1ccc(/C=N/NS(=O)(=O)c2ccc(/C=C3\NC(=O)N(C)C3=O)cc2)cc1
inactive: EKVX 89.9 µM | HL-60 67 µM | HOP-62 40.2 µM | HT-29 > 100 µM | LOX IMVI > 100 µM | MCF7 40.9 µM | MOLT-4 63.5 µM | NCI-H23 92.9 µM | OVCAR-5 > 100 µM | PC-3 80.2 µM | SF-268 37.8 µM | SF-295 55 µM | SK-MEL-28 > 100 µM | SK-MEL-2 > 100 µM | SNB-19 80.9 µM | SNB-75 45.6 µM | T47D > 100 µM | UACC-257 57.8 µM | UO-31 50.4 µM

CC1(C)OC2OC(C(COS(=O)(=O)C(F)(F)F)N=[N+]=[N-])C(OC(=O)c3ccccc3)C2O1 (stereo unspecified)
inactive: EKVX > 100 µM | HL-60 > 100 µM | HOP-62 > 100 µM | HT-29 > 100 µM | LOX IMVI > 100 µM | MCF7 > 100 µM | MOLT-4 > 100 µM | NCI-H23 > 100 µM | OVCAR-5 > 100 µM | PC-3 > 100 µM | SF-268 > 100 µM | SF-295 > 100 µM | SK-MEL-28 > 100 µM | SK-MEL-2 > 100 µM | SNB-19 > 100 µM | SNB-75 53.1 µM | UACC-257 > 100 µM | UO-31 > 100 µM

CC1(C)C(=S)C(C)(C)C1=S
inactive: EKVX > 100 µM | HOP-62 > 100 µM | HT-29 > 100 µM | LOX IMVI > 100 µM | MCF7 > 100 µM | MOLT-4 > 100 µM | NCI-H23 > 100 µM | OVCAR-5 > 100 µM | PC-3 > 100 µM | SF-268 > 100 µM | SK-MEL-28 > 100 µM | SK-MEL-2 > 100 µM | SNB-19 > 100 µM | SNB-75 > 100 µM | T47D > 100 µM | UACC-257 > 100 µM | UO-31 > 100 µM

CN1CCN(c2ccc3nc(C4=C(O)C(=O)[C@@H]5C(=C4O)N=C(CO)N5C)[nH]c3n2)CC1
inactive: EKVX > 100 µM | HL-60 40.2 µM | HOP-62 > 100 µM | HT-29 > 100 µM | LOX IMVI 73.1 µM | MOLT-4 > 100 µM | NCI-H23 > 100 µM | NCI-H522 64.3 µM | OVCAR-5 > 100 µM | PC-3 69.8 µM | SF-268 74.3 µM | SF-295 > 100 µM | SK-MEL-28 > 100 µM | SNB-19 57.5 µM | SNB-75 97.3 µM | T47D 17.7 µM | UACC-257 > 100 µM | UO-31 > 100 µM

Cc1cc(-c2nc3c(F)cccc3s2)ccc1N
inactive: EKVX 2.42 µM | HL-60 43.8 µM | HOP-62 62.5 µM | HT-29 44.8 µM | LOX IMVI 61.4 µM | MOLT-4 10.7 µM | NCI-H23 32.8 µM | NCI-H522 11.3 µM | PC-3 97.5 µM | SF-268 39.9 µM | SF-295 41.2 µM | SK-MEL-28 > 100 µM | SK-MEL-2 > 100 µM | SNB-75 52.1 µM | UACC-257 82.6 µM | UO-31 12.4 µM

CN(C)C(=O)Oc1c(Br)cc(Br)cc1C(=O)OCc1ccccc1
inactive: EKVX 35.6 µM | HL-60 21.4 µM | HOP-62 28.2 µM | HT-29 13.5 µM | LOX IMVI 22.8 µM | MCF7 26.4 µM | MOLT-4 17.5 µM | NCI-H23 30.6 µM | NCI-H522 34.8 µM | OVCAR-5 28.3 µM | SF-268 35.6 µM | SF-295 20.9 µM | SK-MEL-28 40.2 µM | SK-MEL-2 27.7 µM | SNB-19 45.5 µM | SNB-75 32 µM | UACC-257 26.5 µM | UO-31 20.3 µM

N/C(S)=N/N=C/c1cc(CN2CCOCC2)c(N)cn1
inactive: EKVX 63.1 µM | HL-60 48.2 µM | HOP-62 30.3 µM | HT-29 50.2 µM | LOX IMVI 29.9 µM | MCF7 31.4 µM | MOLT-4 48.1 µM | NCI-H23 39.4 µM | OVCAR-5 60.3 µM | PC-3 56.9 µM | SF-268 23.6 µM | SF-295 36 µM | SK-MEL-2 84.3 µM | SNB-19 47.1 µM | SNB-75 25 µM | T47D 85.9 µM | UACC-257 28.6 µM | UO-31 28.2 µM

O[C@H]1[C@H]2[C@H](O)CCCN2C[C@H]1O [TRIDOLGOSIR]
inactive: EKVX > 100 µM | HL-60 > 100 µM | HOP-62 > 100 µM | HT-29 > 100 µM | LOX IMVI > 100 µM | MOLT-4 > 100 µM | NCI-H23 > 100 µM | NCI-H522 > 100 µM | OVCAR-5 > 100 µM | SF-268 > 100 µM | SF-295 > 100 µM | SK-MEL-28 > 100 µM | SK-MEL-2 > 100 µM | SNB-19 > 100 µM | SNB-75 > 100 µM | UACC-257 > 100 µM | UO-31 > 100 µM
